Assay results reported in article PMC9120017, “Inhibition mechanism of the chloride channel TMEM16A by the pore blocker 1PBC” (Nature Communications, 2022).
Where two headings read alike, the source gives them in different places.

Biological target: T1, mouse TMEM16A mutant Q637A (Mus musculus, UniProt Q8BHY3, Q637A)
T1 construct: expressed in transfected cells; host or cells: HEK293T
T1 sequence (Q8BHY3 1-960 Q637A): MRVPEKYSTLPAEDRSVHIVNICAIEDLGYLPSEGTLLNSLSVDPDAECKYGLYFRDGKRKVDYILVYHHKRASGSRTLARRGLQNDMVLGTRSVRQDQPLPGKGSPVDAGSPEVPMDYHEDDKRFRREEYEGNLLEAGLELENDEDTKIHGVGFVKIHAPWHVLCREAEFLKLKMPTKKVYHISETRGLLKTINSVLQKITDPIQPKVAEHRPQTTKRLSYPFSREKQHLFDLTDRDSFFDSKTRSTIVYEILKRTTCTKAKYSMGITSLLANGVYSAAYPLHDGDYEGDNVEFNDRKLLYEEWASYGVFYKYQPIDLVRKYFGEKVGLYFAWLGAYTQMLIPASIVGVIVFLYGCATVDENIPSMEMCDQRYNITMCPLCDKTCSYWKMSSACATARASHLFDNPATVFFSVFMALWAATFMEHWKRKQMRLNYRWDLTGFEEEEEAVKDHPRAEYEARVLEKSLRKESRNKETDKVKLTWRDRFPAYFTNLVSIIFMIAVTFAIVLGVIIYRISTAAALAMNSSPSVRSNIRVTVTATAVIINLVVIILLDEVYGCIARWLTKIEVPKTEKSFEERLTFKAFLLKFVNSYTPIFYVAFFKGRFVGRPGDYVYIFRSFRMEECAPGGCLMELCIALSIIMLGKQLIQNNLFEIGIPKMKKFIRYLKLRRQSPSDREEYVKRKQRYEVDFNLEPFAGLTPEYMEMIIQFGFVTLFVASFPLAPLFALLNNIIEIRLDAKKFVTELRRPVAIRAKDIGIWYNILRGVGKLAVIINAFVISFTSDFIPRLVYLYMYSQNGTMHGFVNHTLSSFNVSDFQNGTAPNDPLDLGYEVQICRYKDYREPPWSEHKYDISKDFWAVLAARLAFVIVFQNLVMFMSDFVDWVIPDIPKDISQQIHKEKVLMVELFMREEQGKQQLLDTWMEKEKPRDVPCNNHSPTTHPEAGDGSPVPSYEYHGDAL
Test: Inside-out patch recording of 1PBC block, mutant Q637A
Format: cell-based
Conditions: for remaining activity at 1 µM: 1PBC conc 1; for remaining activity at 1 µM / remaining activity at 3 µM / remaining activity at 10 µM / remaining activity at 30 µM: read-out: relative current in 1PBC (avr); for remaining activity at 3 µM: 1PBC conc 3; for remaining activity at 10 µM: 1PBC conc 10; for remaining activity at 30 µM: 1PBC conc 30
Experimental: HEK293T cells (ATCC CRL-1573) were maintained in Dulbecco’s modified Eagle’s medium (DMEM; Sigma-Aldrich) supplemented with 10 U ml^−1 penicillin, 0.1 mg ml^−1 streptomycin (Sigma-Aldrich), 2 mM L-glutamine (Sigma-Aldrich), and 10% FBS (Sigma-Aldrich) in a humidified atmosphere containing 5% CO2 at 37 °C. HEK293S GnTI^− cells (ATCC CRL-3022) were maintained in HyClone HyCell TransFx-H medium (GE Healthcare) supplemented with 10 U ml^−1 penicillin, 0.1 mg ml^−1 streptomycin, 4 mM L-glutamine, 0.15% poloxamer 188 (Sigma-Aldrich), and 1% FBS in an atmosphere containing 5% CO2 at 185 rpm at 37 °C. The ac splice variant of mouse TMEM16A (UniProt ID: Q8BHY3), mouse TMEM16B (UniProt ID: Q8CFW1), or mouse TMEM16F (UniProt ID: Q6P9J9) bearing a 3C cleavage site, a Venus YFP, a Myc tag, and a Streptavidin-binding peptide (SBP) downstream of the open reading frame in a modified pcDNA3.1 vector (Invitrogen) were used as described previously[21],[31]. Mutations were introduced using a modified QuikChange method[58] and were verified by sequencing.
HEK293T cells were transfected with 3–4 μg DNA per 6 cm Petri dish using the calcium phosphate co-precipitation method and were used within 24–96 h after transfection. Recordings were performed on inside-out patches excised from HEK293T cells expressing the construct of interest. Patch pipettes were pulled from borosilicate glass capillaries (O.D. 1.5 mm, I.D. 0.86 mm, Sutter Instrument) and were fire-polished with a microforge (Narishige) before use. Pipette resistance was typically 3–8 MΩ when filled with the recording solutions detailed below. Seal resistance was typically 4 GΩ or higher. Voltage-clamp recordings were made using Axopatch 200B, Digidata 1550, and Clampex 10.7 (Molecular Devices). Analog signals were filtered with the in-built 4-pole Bessel filter at 10 kHz and were digitized at 20 kHz. Solution exchange was achieved using a gravity-fed system through a theta glass pipette mounted on an ultra-fast piezo-driven stepper (Siskiyou). […] All recordings were performed at 20 °C.
A symmetrical ionic condition was used throughout. Stock solution with Ca^2+-EGTA contained 150 mM NaCl, 5.99 mM Ca(OH)2, 5 mM EGTA, and 10 mM HEPES at pH 7.40. Stock solution with EGTA contained 150 mM NaCl, 5 mM EGTA, and 10 mM HEPES at pH 7.40. Free Ca^2+ concentrations were adjusted by mixing the stock solutions at the required ratios calculated using the WEBMAXC program (http://web.stanford.edu/~cpatton/webmaxcS.htm). Patch pipettes were filled with the stock solution with Ca^2+-EGTA, which has a free Ca^2+ concentration of 1 mM. 1PBC (ChemBridge) stock was reconstituted in anhydrous DMSO (Sigma-Aldrich) at 100 mM and stored at −20 °C. Working solutions with 1PBC were prepared by serial dilution. Unless otherwise stated, experiments were performed at a saturating Ca^2+ concentration as shown in Supplementary Table 1 and the primary data were corrected for current rundown as described previously[21],[25].
Concentration-response relations, obtained from the ratio of the I-V plots before and after the application of the blocker, were fitted to the Hill equation,1 I/Imax=1/1+IC50/[blocker]^h where I/Imax is the normalized current responses, IC50 defines the concentration at which inhibition is at its half-maximum, and h is the Hill coefficient.

An IC50 (0 mV, 2 µM Ca2+) of 1.82 µM, a remaining activity at 1 µM (0 mV) of 65.8% and a remaining activity at 3 µM (0 mV) of 36.3% were found for `N#Cc1c(C(F)(F)F)cc(O)n2c1nc1ccccc12` [1PBC] in this work. The remaining activity at 10 µM (0 mV) was 15.5%, the remaining activity at 30 µM (0 mV) was 6.35% and the IC50 (20 mV, 2 µM Ca2+) was 1.4 µM. It also gave a remaining activity at 1 µM (20 mV) of 59.7%, a remaining activity at 3 µM (20 mV) of 30.3% and a remaining activity at 10 µM (20 mV) of 12.3%. It also gave a remaining activity at 30 µM (20 mV) of 4.62%, an IC50 (40 mV, 2 µM Ca2+) of 1.15 µM and a remaining activity at 1 µM (40 mV) of 54.8%. For the same compound, the remaining activity at 3 µM (40 mV) was 26.2%, the remaining activity at 10 µM (40 mV) was 10.3% and the remaining activity at 30 µM (40 mV) was 3.87%. It also gave an IC50 (60 mV, 2 µM Ca2+) of 0.956 µM, a remaining activity at 1 µM (60 mV) of 49.7% and a remaining activity at 3 µM (60 mV) of 22.8%. The remaining activity at 10 µM (60 mV) was 9%, the remaining activity at 30 µM (60 mV) was 3.77% and the “log-fold IC50 (change of mutant vs WT)” value (80 mV) was -0.3333. The IC50 (80 mV, 2 µM Ca2+) was 0.88 µM, the remaining activity at 1 µM (80 mV) was 47.5% and the remaining activity at 3 µM (80 mV) was 21%. It also gave a remaining activity at 10 µM (80 mV) of 9.17%, a remaining activity at 30 µM (80 mV) of 3.99% and an IC50 (100 mV, 2 µM Ca2+) of 0.898 µM. For the same compound, the remaining activity at 1 µM (100 mV) was 48.7%, the remaining activity at 3 µM (100 mV) was 20.5% and the remaining activity at 10 µM (100 mV) was 9.32%. For the same compound, the remaining activity at 30 µM (100 mV) was 4.29%, the IC50 (120 mV, 2 µM Ca2+) was 0.985 µM and the remaining activity at 1 µM (120 mV) was 50.9%. It also gave a remaining activity at 3 µM (120 mV) of 22%, a remaining activity at 10 µM (120 mV) of 10.5% and a remaining activity at 30 µM (120 mV) of 5.23%. The IC50 (140 mV, 2 µM Ca2+) was 1.17 µM, the remaining activity at 1 µM (140 mV) was 55.6% and the remaining activity at 3 µM (140 mV) was 24.7%. The remaining activity at 10 µM (140 mV) was 12.4%, the remaining activity at 30 µM (140 mV) was 6.82% and the IC50 (-20 mV, 2 µM Ca2+) was 2.34 µM. It also gave a remaining activity at 1 µM (-20 mV) of 71.8%, a remaining activity at 3 µM (-20 mV) of 42.4% and a remaining activity at 10 µM (-20 mV) of 18.6%. For the same compound, the remaining activity at 30 µM (-20 mV) was 8.09%, the IC50 (-40 mV, 2 µM Ca2+) was 3.08 µM and the remaining activity at 1 µM (-40 mV) was 76.6%. The remaining activity at 3 µM (-40 mV) was 49.5%, the remaining activity at 10 µM (-40 mV) was 23.3% and the remaining activity at 30 µM (-40 mV) was 10.7%. It also gave an IC50 (-60 mV, 2 µM Ca2+) of 4.04 µM, a remaining activity at 1 µM (-60 mV) of 81.3% and a remaining activity at 3 µM (-60 mV) of 56.4%. The remaining activity at 10 µM (-60 mV) was 28.3%, the remaining activity at 30 µM (-60 mV) was 13.4% and the IC50 (-80 mV, 2 µM Ca2+) was 5.19 µM. The remaining activity at 1 µM (-80 mV) was 84.8%, the remaining activity at 3 µM (-80 mV) was 62.7% and the remaining activity at 10 µM (-80 mV) was 33.3%. For the same compound, the remaining activity at 30 µM (-80 mV) was 16.6%, the IC50 (-100 mV, 2 µM Ca2+) was 6.66 µM and the remaining activity at 1 µM (-100 mV) was 87.3%. It also gave a remaining activity at 3 µM (-100 mV) of 68.5%, a remaining activity at 10 µM (-100 mV) of 38.7% and a remaining activity at 30 µM (-100 mV) of 20.5%. The IC50 (-120 mV, 2 µM Ca2+) was 8.29 µM, the remaining activity at 1 µM (-120 mV) was 88.8% and the remaining activity at 3 µM (-120 mV) was 72.5%. The remaining activity at 10 µM (-120 mV) was 44.2%, the remaining activity at 30 µM (-120 mV) was 24.7% and the IC50 (-140 mV, 2 µM Ca2+) was 10.2 µM. It also gave a remaining activity at 1 µM (-140 mV) of 89.3%, a remaining activity at 3 µM (-140 mV) of 76.3% and a remaining activity at 10 µM (-140 mV) of 49.3%. It also gave a remaining activity at 30 µM (-140 mV) of 28.8%, an IC50 (Q637A, V 0 mV) of 1.82 µM and an IC50 (Q637A, V 20 mV) of 1.4 µM. It also gave an IC50 (Q637A, V 40 mV) of 1.15 µM, an IC50 (Q637A, V 60 mV) of 0.956 µM and an IC50 (Q637A, V 80 mV) of 0.88 µM. The IC50 (Q637A, V 100 mV) was 0.898 µM, the IC50 (Q637A, V 120 mV) was 0.985 µM and the IC50 (Q637A, V 140 mV) was 1.17 µM. It also gave an IC50 (Q637A, V -20 mV) of 2.34 µM, an IC50 (Q637A, V -40 mV) of 3.08 µM and an IC50 (Q637A, V -60 mV) of 4.04 µM. The IC50 (Q637A, V -80 mV) was 5.19 µM, the IC50 (Q637A, V -100 mV) was 6.66 µM and the IC50 (Q637A, V -120 mV) was 8.29 µM. For the same compound, the IC50 (Q637A, V -140 mV) was 10.2 µM.
